Data: paper PMC10349806 (Nature Communications, 2023)
Values joined by “and” are separate entries in the source; they are usually repeats but may differ in a detail not shown here. Identical values can stand only once.

Tests used:
PfCRT variant F322A = biological target: T1, PfCRT variant F322A (Plasmodium falciparum, UniProt Q9N623, A220S/F322A/I356T/K76T/M74I/N326S/N75E/Q271E/R371I); experiment: CQ uptake assay, oocytes expressing F322A; assay type: cell-based
T1 sequence (Q9N623 1-424 M74I/N75E/K76T/A220S/Q271E/F322A/N326S/I356T/R371I): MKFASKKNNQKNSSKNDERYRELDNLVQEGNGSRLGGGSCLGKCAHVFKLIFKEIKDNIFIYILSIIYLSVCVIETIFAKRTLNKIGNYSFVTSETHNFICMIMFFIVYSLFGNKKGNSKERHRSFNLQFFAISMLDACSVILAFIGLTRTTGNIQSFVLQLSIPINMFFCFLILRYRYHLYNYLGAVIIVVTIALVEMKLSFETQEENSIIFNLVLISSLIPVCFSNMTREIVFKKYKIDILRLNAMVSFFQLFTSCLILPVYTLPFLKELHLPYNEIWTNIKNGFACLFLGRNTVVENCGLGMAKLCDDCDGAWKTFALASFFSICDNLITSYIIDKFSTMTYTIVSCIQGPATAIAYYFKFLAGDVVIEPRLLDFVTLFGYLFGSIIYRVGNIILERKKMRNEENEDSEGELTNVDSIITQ
Protocol: Site-directed mutagenesis of PfCRT^Dd2 was performed as described using the megaprimer method with overlap extension[21],[54]. The primer pairs used are listed in Supplementary Table 6. Please note that a codon-optimized and oocyte-adapted version of PfCRT^Dd2 was used[22] (Supplementary Fig. 16). The resulting DNA fragment was cloned into the SP64T expression vector and verified by sequencing.
Oocytes were obtained as described previously. Briefly, adult (>2 years old) female X. laevis frogs (NASCO) were anesthetized in a cooled solution of ethyl 3-amino benzoate methanesulfonate (0.1%, w/v), followed by a surgical removal of parts of the ovary. The ovary lobes were carefully dissected and small pieces of oocytes were incubated in Ca^2+-free ND96 buffer (96 mM NaCl, 2 mM KCl, 1 mM MgCl2 buffered with 5 mM HEPES/NaOH, pH 7.5) supplemented with collagenase D (0.1%, w/v; Roche), BSA (0.5%, w/v), and 9 mm Na2HPO4 at 18 °C for 14-16 h while gentle shaking. After incubation, the oocytes were carefully washed several times with ND96 buffer (96 mM NaCl, 2 mM KCl, 1.8 mM CaCl2, 1 mM MgCl2 buffered with 5 mM HEPES/NaOH, pH 7.5) supplemented with 100 mg l^−1 gentamycin). Defolliculated and healthy-looking stage V-VI oocytes were manually selected for RNA microinjection. The RNA was generated as following: The codon-optimized sequences of PfCRT variants were cloned into the pSP64T expression vector. After vector linearization using the restriction endonucleases BamHI or SalI (New England Biolabs), transcription was performed using the in vitro SP6 mMessage mMachine Kit (Ambion)[34]. The obtained RNA was kept at −80 °C and diluted with nuclease-free water to a concentration of 0.6 μg μl^−1. Precision-bore glass capillary tubes (3.5-inch glass capillaries; Drummond Scientific Co.) were pulled on a vertical puller (P-87 Flaming/Brown micropipette puller, Sutter Instrument Co.), graduated, and placed on a microinjector (Nanoject II Auto-Nanoliter Injector, Drummond Scientific Co.). 50 nl of nuclease-free water alone (control oocytes) or 50 nl of 0.6 μg μl^−1 RNA were injected under stereomicroscopic control. Injected oocytes were incubated for 46–72 h at 18 °C with twice-daily buffer changes before usage in experiments.
Drug uptake assays were performed as described previously[21],[22],[24],[34]. […] The direction of radio-labeled drug transport is here from the mostly acidic extracellular solution (pH 4.5 or 6.0, as indicated) into the oocyte cytosol (pH ∼ 7.2), which corresponds to the efflux of drug from the acidic digestive vacuole (pH 5.2) into the parasite cytoplasm (pH 7.2). The topology of PfCRT in the oolemma is such that both the N- and C-terminus face the extracellular milieu[3],[22]. In the parasite, the N- and C-terminus face the lumen of the digestive vacuole. CQ uptake kinetics were performed by incubating oocytes in ND96 buffer adjusted to a pH of 4.5, 5.0, 5.5, or 6.0 and supplemented with 50 nM [^3H]CQ and one of 7 different CQ concentrations (10 µM, 50 µM, 100 µM, 200 µM, 300 µM, 400 µM, 500 µM CQ). The reaction was stopped at the 60 min time point, which is in the linear uptake range[22],[34] (Supplementary Fig. 17). For determination of the amount of drug uptake for each oocyte, the reaction medium was removed and the oocytes were washed three times with 2 ml of ice-cold ND96 buffer. Each oocyte was individually transferred to a scintillation vial containing 5% sodium dodecyl sulfate (200 μl) for lysis. The radioactivity of each sample was measured using a liquid scintillation analyzer Tri-Carb 4910 TR (PerkinElmer). Oocytes that were injected with water instead of RNA were analyzed in parallel, representing the uptake of a drug by diffusion and/or endogenous permeation pathways. The resulting value represents the “background“ level of drug accumulation in oocytes (in-depth discussion in[22]). […]

PfCRT^Dd2 = PfCRT^Dd2 (Plasmodium falciparum, UniProt Q9N623, A220S/I356T/K76T/M74I/N326S/N75E/Q271E/R371I); conditions: cited from earlier work
Sequence of PfCRT^Dd2 (Q9N623 whole entry A220S/I356T/K76T/M74I/N326S/N75E/Q271E/R371I): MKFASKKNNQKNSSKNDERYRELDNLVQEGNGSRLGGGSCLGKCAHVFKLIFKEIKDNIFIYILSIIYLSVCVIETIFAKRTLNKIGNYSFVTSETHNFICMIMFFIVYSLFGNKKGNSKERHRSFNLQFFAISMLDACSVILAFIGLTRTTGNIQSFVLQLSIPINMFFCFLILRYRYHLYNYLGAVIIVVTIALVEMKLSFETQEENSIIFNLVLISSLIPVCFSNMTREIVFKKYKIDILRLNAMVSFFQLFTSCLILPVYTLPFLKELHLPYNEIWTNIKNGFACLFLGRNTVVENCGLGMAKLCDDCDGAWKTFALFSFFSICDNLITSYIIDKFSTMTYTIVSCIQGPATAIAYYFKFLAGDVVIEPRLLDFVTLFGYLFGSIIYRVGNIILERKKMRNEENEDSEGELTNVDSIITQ

[1] = F322A, 50 µM CQ, 1 h, mean ± SEM

CCN(CC)CCCC(C)Nc1ccnc2cc(Cl)ccc12 (centres unmarked) [CQ, chloroquine]
Activity at pH 4.5 (PfCRT variant F322A; [1]): 0.72 ± 0.12 pmol h-1 oocyte-1 | Activity at pH 6.0 (PfCRT variant F322A; [1]): 1.05 ± 0.12 pmol h-1 oocyte-1 | R-value (PfCRT variant F322A; F322A, CQ transport at pH 4.5 / pH 6.0): 0.68 ± 0.04 | F322A transport activity pH 4.5 (PfCRT variant F322A; pH 4.5, single replicates, Fig 1d left): 0.55 pmol oocyte-1 h-1 and 1.12 pmol oocyte-1 h-1 and 0.61 pmol oocyte-1 h-1 and 0.60 pmol oocyte-1 h-1 | F322A R-value (PfCRT variant F322A; pH 4.5 vs pH 6.0, Fig 1d left): 0.73 and 0.78 and 0.63 and 0.59 | F322A transport activity pH 6.0 (PfCRT variant F322A; pH 6.0, single replicates, Fig 1d left): 0.75 pmol oocyte-1 h-1 and 1.44 pmol oocyte-1 h-1 and 0.97 pmol oocyte-1 h-1 and 1.02 pmol oocyte-1 h-1 | share of full transport velocity (PfCRT^Dd2; at the pH of the digestive vacuole of 5.2): 60% | pH of maximal CQ transport activity (PfCRT^Dd2): ~ 6.0 pH
